In publication PMC2248166, “Quantitative peptide binding motifs for 19 human and mouse MHC class I molecules derived using positional scanning combinatorial peptide libraries” (Immunome Research, 2008):

biological target: HLA A*3001 (Homo sapiens, UniProt P04439, D140H/D185E/E176W/F33S/G80R/H175R/K168Q/R138E/R41S); experiment: biochemical; assay type: binding

Sequence	Normalized average relative binding affinity(ARB)
XXXXXXXDX [3064.0143]	0.052
XXXXXXXEX [3064.0144]	0.12
XXXXXXXFX [3064.0145]	0.76
XXXXXXXGX [3064.0146]	0.18
XXXXXXXHX [3064.0147]	0.44
XXXXXXXIX [3064.0148]	0.21

biological target: HLA B*5401 (Homo sapiens, UniProt P01889, A329T/C349S/D138N/D201E/E176V/E187T/E204Q/E69G/I76V/K202T/L119W/R155S/R180L/S121T/S35A/S48A/V127L/V306I/V36M/Y140L); experiment: not given; assay type: binding

Sequence	Normalized average relative binding affinity(ARB)
XXXXXXXDX [3064.0143]	0.038
XXXXXXXEX [3064.0144]	0.13
XXXXXXXFX [3064.0145]	0.080
XXXXXXXGX [3064.0146]	0.083
XXXXXXXHX [3064.0147]	0.043
XXXXXXXIX [3064.0148]	0.11

biological target: HLA B*1503 (Homo sapiens, UniProt P01889, A329T/A93T/A95T/C349S/D201E/D98Y/E187L/E204Q/K202T/N87E/Q94N/R155S/R180L/S121R/S35A/V306I/V36M/Y140S/Y91S); experiment: biochemical; assay type: binding

Sequence	Normalized average relative binding affinity(ARB)
XXXXXXXDX [3064.0143]	0.14
XXXXXXXEX [3064.0144]	0.11
XXXXXXXFX [3064.0145]	0.21
XXXXXXXGX [3064.0146]	0.18
XXXXXXXHX [3064.0147]	0.84
XXXXXXXIX [3064.0148]	0.33

biological target: HLA B*5301 (Homo sapiens, UniProt P01889, A329T/A93T/A95T/C349S/D201E/D98Y/E176V/E187L/E204Q/E69T/G107R/I218V/K202T/L105A/L119I/N104I/Q94N/R106L/R155S/R180L/S101N/S121R/S35A/S48A/T118I/V127L/V306I/V36M/Y140S/Y91F); experiment: not given; assay type: binding

Sequence	Normalized average relative binding affinity(ARB)
XXXXXXXDX [3064.0143]	0.082
XXXXXXXEX [3064.0144]	0.10
XXXXXXXFX [3064.0145]	0.46
XXXXXXXGX [3064.0146]	0.094
XXXXXXXHX [3064.0147]	0.74
XXXXXXXIX [3064.0148]	1.0

biological target: HLA A*6802 (Homo sapiens, UniProt P04439, A269V/D140Y/D185E/E176V/E277Q/E87N/F33Y/G231S/I121R/I166T/I218V/L180W/L300P/L318F/N151K/P208A/P217A/Q86R/R138H/R169H/S129P/T345S/V36M); experiment: not given; assay type: binding

Sequence	Normalized average relative binding affinity(ARB)
XXXXXXXDX [3064.0143]	0.093
XXXXXXXEX [3064.0144]	0.14
XXXXXXXFX [3064.0145]	0.31
XXXXXXXGX [3064.0146]	0.31
XXXXXXXHX [3064.0147]	0.046
XXXXXXXIX [3064.0148]	0.051

biological target: H-2 D^d (Mus musculus, UniProt P01900); experiment: not given; assay type: binding
Sequence (P01900 whole entry, looked up): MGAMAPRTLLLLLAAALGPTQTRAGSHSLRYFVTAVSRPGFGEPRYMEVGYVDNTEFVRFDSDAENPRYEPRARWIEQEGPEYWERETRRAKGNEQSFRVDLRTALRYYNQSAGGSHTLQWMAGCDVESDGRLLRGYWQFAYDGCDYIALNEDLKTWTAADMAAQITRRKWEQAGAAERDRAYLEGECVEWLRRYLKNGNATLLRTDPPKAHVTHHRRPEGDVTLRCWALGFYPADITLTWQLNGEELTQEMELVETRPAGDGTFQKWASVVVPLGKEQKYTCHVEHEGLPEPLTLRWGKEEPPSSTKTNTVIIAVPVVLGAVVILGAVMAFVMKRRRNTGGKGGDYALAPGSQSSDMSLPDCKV

Sequence	Normalized average relative binding affinity(ARB)
XXXXXXXDX [3064.0143]	0.44
XXXXXXXEX [3064.0144]	0.65
XXXXXXXFX [3064.0145]	0.75
XXXXXXXGX [3064.0146]	0.62
XXXXXXXHX [3064.0147]	0.11
XXXXXXXIX [3064.0148]	0.25

biological target: H-2 D^b (Mus musculus, UniProt P01899); experiment: not given; assay type: binding
Sequence (P01887 21-119): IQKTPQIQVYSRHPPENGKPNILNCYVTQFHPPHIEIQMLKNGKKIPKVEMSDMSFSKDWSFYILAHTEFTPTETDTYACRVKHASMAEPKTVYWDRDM
Sequence (P01899 25-362): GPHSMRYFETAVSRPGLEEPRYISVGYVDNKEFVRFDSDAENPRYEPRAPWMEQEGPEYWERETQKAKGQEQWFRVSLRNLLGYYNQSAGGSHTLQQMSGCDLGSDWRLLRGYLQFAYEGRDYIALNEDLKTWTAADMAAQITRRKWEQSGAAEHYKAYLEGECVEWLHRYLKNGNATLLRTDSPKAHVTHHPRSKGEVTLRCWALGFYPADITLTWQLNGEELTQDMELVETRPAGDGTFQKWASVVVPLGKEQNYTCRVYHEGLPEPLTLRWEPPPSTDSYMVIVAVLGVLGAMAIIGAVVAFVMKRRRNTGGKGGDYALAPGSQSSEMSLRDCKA

Sequence	Normalized average relative binding affinity(ARB)
XXXXXXXDX [3064.0143]	0.090
XXXXXXXEX [3064.0144]	0.33
XXXXXXXFX [3064.0145]	0.79
XXXXXXXGX [3064.0146]	0.043
XXXXXXXHX [3064.0147]	0.073
XXXXXXXIX [3064.0148]	0.14

biological target: HLA B*1501 (Homo sapiens, UniProt P01889, A329T/A93T/A95T/C349S/D201E/D98Y/E187L/E204Q/E69M/E70A/K202T/N87E/Q94N/R155S/R180W/S121R/S35A/S48A/V306I/V36M/Y140S/Y91S); experiment: biochemical; assay type: binding

Sequence	Normalized average relative binding affinity(ARB)
XXXXXXXDX [3064.0143]	0.049
XXXXXXXEX [3064.0144]	0.23
XXXXXXXFX [3064.0145]	0.32
XXXXXXXGX [3064.0146]	0.15
XXXXXXXHX [3064.0147]	1.0
XXXXXXXIX [3064.0148]	0.18

biological target: HLA A*3201 (Homo sapiens, UniProt P04439, A270S/D101S/D185E/E176V/E277Q/F133L/G103R/G107R/G231S/H175R/I121M/I218V/I322F/K168Q/L105A/L300P/L318F/M331R/P208A/P217A/Q94H/R106L/R138Q/S129P/T104I/T323A/T345S/V100E/V321M/V358M); experiment: biochemical; assay type: binding

Sequence	Normalized average relative binding affinity(ARB)
XXXXXXXDX [3064.0143]	0.10
XXXXXXXEX [3064.0144]	0.27
XXXXXXXFX [3064.0145]	0.24
XXXXXXXGX [3064.0146]	0.54
XXXXXXXHX [3064.0147]	0.49
XXXXXXXIX [3064.0148]	0.60

biological target: H-2 K^k (Mus musculus, UniProt P04223); experiment: not given; assay type: binding
Sequence (P01887 21-119): as the sequence (P01887 21-119) above
Sequence (P04223 22-369): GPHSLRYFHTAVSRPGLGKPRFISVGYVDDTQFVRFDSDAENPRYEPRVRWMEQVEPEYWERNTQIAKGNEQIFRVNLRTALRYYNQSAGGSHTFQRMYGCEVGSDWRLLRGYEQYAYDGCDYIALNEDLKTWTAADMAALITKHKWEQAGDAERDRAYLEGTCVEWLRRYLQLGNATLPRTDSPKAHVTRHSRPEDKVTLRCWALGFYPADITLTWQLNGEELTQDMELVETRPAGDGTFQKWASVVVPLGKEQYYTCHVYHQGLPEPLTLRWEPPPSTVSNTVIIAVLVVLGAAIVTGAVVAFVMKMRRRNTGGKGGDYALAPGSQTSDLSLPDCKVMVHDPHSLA

Sequence	Normalized average relative binding affinity(ARB)
XXXXXXXDX [3064.0143]	0.26
XXXXXXXEX [3064.0144]	0.46
XXXXXXXFX [3064.0145]	1.0
XXXXXXXGX [3064.0146]	0.32
XXXXXXXHX [3064.0147]	0.0052
XXXXXXXIX [3064.0148]	0.56

biological target: HLA B*3501 (Homo sapiens, UniProt P01889, A329T/A93T/A95T/C349S/D201E/D98Y/E176V/E187L/E204Q/E69T/I218V/K202T/L119I/Q94N/R155S/R180L/S121R/S35A/S48A/T118I/V127L/V306I/V36M/Y140S/Y91F); experiment: not given; assay type: binding

Sequence	Normalized average relative binding affinity(ARB)
XXXXXXXDX [3064.0143]	0.073
XXXXXXXEX [3064.0144]	0.098
XXXXXXXFX [3064.0145]	0.13
XXXXXXXGX [3064.0146]	0.098
XXXXXXXHX [3064.0147]	0.15
XXXXXXXIX [3064.0148]	0.55

biological target: HLA B*5101 (Homo sapiens, UniProt P01889, A329T/A93T/A95T/C349S/D138N/D201E/D98Y/E187L/E204Q/E69T/G107R/I218V/K202T/L105A/L119W/N104I/Q94N/R106L/R155S/R180L/S101N/S121T/S35A/S48A/V306I/V36M/Y195H/Y91F); experiment: not given; assay type: binding

Sequence	Normalized average relative binding affinity(ARB)
XXXXXXXDX [3064.0143]	0.17
XXXXXXXEX [3064.0144]	0.34
XXXXXXXFX [3064.0145]	1.0
XXXXXXXGX [3064.0146]	0.20
XXXXXXXHX [3064.0147]	0.33
XXXXXXXIX [3064.0148]	0.21

biological target: HLA B*5801 (Homo sapiens, UniProt P01889, A329T/C349S/D201E/D98Y/E176V/E187L/E204Q/E69T/G107R/I218V/I90N/K202T/L105A/L119I/N104I/N87E/Q89R/Q94S/R106L/R155S/R180L/R86G/S101N/S121R/S35A/S48A/T118I/V127L/V306I/V36M/Y140S/Y91M); experiment: not given; assay type: binding

Sequence	Normalized average relative binding affinity(ARB)
XXXXXXXDX [3064.0143]	0.063
XXXXXXXEX [3064.0144]	0.18
XXXXXXXFX [3064.0145]	1.0
XXXXXXXGX [3064.0146]	0.21
XXXXXXXHX [3064.0147]	0.18
XXXXXXXIX [3064.0148]	0.39

biological target: HLA B*5802 (Homo sapiens, UniProt P01889, A329T/C349S/D201E/D98Y/E176V/E187L/E204Q/E69T/G107R/I218V/I90N/K202T/L105A/N104I/N87E/Q89R/Q94S/R106L/R155S/R180L/R86G/S101N/S121W/S35A/S48A/V127L/V306I/V36M/Y140S/Y91M); experiment: not given; assay type: binding

Sequence	Normalized average relative binding affinity(ARB)
XXXXXXXDX [3064.0143]	0.087
XXXXXXXEX [3064.0144]	0.30
XXXXXXXFX [3064.0145]	0.33
XXXXXXXGX [3064.0146]	0.87
XXXXXXXHX [3064.0147]	0.26
XXXXXXXIX [3064.0148]	0.41

biological target: HLA B*0801 (Homo sapiens, UniProt P01889, A93T/A95T/D138N/E176V/E187T/K202T/Q94N/R180D/S35A/V36M/Y33D/Y91F); experiment: biochemical; assay type: binding

Sequence	Normalized average relative binding affinity(ARB)
XXXXXXXDX [3064.0143]	0.17
XXXXXXXEX [3064.0144]	0.24
XXXXXXXFX [3064.0145]	0.32
XXXXXXXGX [3064.0146]	0.099
XXXXXXXHX [3064.0147]	0.15
XXXXXXXIX [3064.0148]	0.39

biological target: H-2 K^d (Mus musculus, UniProt P01902); experiment: not given; assay type: binding
Sequence (P01887 21-119): as the sequence (P01887 21-119) above
Sequence (P01902 22-368): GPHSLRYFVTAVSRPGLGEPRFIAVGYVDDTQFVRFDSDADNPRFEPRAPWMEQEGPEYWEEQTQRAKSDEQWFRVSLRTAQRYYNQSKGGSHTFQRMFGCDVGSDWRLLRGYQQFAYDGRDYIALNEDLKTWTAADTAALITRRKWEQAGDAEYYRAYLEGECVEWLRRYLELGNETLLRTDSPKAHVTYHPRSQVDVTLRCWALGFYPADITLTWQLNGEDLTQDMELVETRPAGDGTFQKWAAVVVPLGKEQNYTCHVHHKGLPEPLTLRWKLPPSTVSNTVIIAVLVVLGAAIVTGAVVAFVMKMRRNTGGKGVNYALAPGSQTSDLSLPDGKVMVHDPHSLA

Sequence	Normalized average relative binding affinity(ARB)
XXXXXXXDX [3064.0143]	0.62
XXXXXXXEX [3064.0144]	0.55
XXXXXXXFX [3064.0145]	0.66
XXXXXXXGX [3064.0146]	0.63
XXXXXXXHX [3064.0147]	0.096
XXXXXXXIX [3064.0148]	0.30
